Measurements: PubChem BioAssay (NCI)
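1) Cells in 96-well plates. 2) Compound, 48 h, 5 concentrations. 3) Linear interpolation between surrounding doses. 4) Unreached endpoint = highest concentration. Here, GI50 denotes the concentration required for 50% inhibition of growth. TGI marks complete inhibition of growth.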

Columns and labels:
Assay in all cases: NCI-60 cell line screen, 48 h
UACC-62 melanoma = system: UACC-62 melanoma
NCI-H226 lung = system: NCI-H226 lung
A498 renal = system: A498 renal
TK-10 renal = system: TK-10 renal
HL-60(TB) leukemia = system: HL-60(TB) leukemia
SF-268 CNS = system: SF-268 CNS
SNB-75 CNS = system: SNB-75 CNS
OVCAR-3 ovarian = system: OVCAR-3 ovarian
SK-OV-3 ovarian = system: SK-OV-3 ovarian
OVCAR-4 ovarian = system: OVCAR-4 ovarian
SK-MEL-28 melanoma = system: SK-MEL-28 melanoma
HS 578T breast = system: HS 578T breast
SNB-19 CNS = system: SNB-19 CNS
SN12C renal = system: SN12C renal
BT-549 breast = system: BT-549 breast
HOP-62 NSCLC = system: HOP-62 NSCLC
HOP-92 NSCLC = system: HOP-92 NSCLC
SR leukemia = system: SR leukemia
T-47D breast = system: T-47D breast
UO-31 renal = system: UO-31 renal
EKVX NSCLC = system: EKVX NSCLC
CAKI-1 renal = system: CAKI-1 renal
PC-3 prostate = system: PC-3 prostate
CCRF-CEM leukemia = system: CCRF-CEM leukemia
MOLT-4 leukemia = system: MOLT-4 leukemia
DU-145 prostate = system: DU-145 prostate
786-0 renal = system: 786-0 renal
OVCAR-5 ovarian = system: OVCAR-5 ovarian
MDA-MB-468 breast = system: MDA-MB-468 breast

Question: Which GI50 (UACC-62 melanoma) does the source give for `CNCc1cccc2c1OCCCCCC[C@@](C)(O)CC1(CC1)S(=O)(=O)c1ccc(cc1)-c1cnc(N)c(n1)C(=O)N2` here?
Answer: Its GI50 is 1.6 µM.

Question: What about the TGI (UACC-62 melanoma) of the same compound?
Answer: The TGI was 3.06 µM.

Question: And the GI50 (NCI-H226 lung)?
Answer: Its GI50 is 1.53 µM.

Question: What about the TGI (NCI-H226 lung) of the same compound?
Answer: Its TGI is 4.18 µM.

Question: And the GI50 (A498 renal)?
Answer: Its GI50 is 3.93 µM.

Question: What about the TGI (A498 renal) of the same compound?
Answer: The TGI was 25.4 µM.

Question: What about the GI50 (TK-10 renal) of the same compound?
Answer: Its GI50 is 1.55 µM.

Question: What about the TGI (TK-10 renal) of the same compound?
Answer: The TGI was 18.6 µM.

Question: What about the GI50 (HL-60(TB) leukemia) of the same compound?
Answer: Its GI50 is 0.0197 µM.

Question: And the TGI (HL-60(TB) leukemia)?
Answer: The TGI was 0.324 µM.

Question: What about the GI50 (SF-268 CNS) of the same compound?
Answer: Its GI50 is 1.41 µM.

Question: And the TGI (SF-268 CNS)?
Answer: Its TGI is 4.18 µM.

Question: What about the GI50 (SNB-75 CNS) of the same compound?
Answer: Its GI50 is 0.213 µM.

Question: What about the TGI (SNB-75 CNS) of the same compound?
Answer: Its TGI is 16.3 µM.

Question: What about the GI50 (OVCAR-3 ovarian) of the same compound?
Answer: Its GI50 is 1.26 µM.

Question: And the TGI (OVCAR-3 ovarian)?
Answer: The TGI was 4.73 µM.

Question: What about the GI50 (SK-OV-3 ovarian) of the same compound?
Answer: The GI50 was 1.54 µM.

Question: What about the TGI (SK-OV-3 ovarian) of the same compound?
Answer: The TGI was 19.4 µM.

Question: What about the GI50 (OVCAR-4 ovarian) of the same compound?
Answer: The GI50 was 2.93 µM.

Question: And the TGI (OVCAR-4 ovarian)?
Answer: Its TGI is 26.3 µM.

Question: What about the GI50 (SK-MEL-28 melanoma) of the same compound?
Answer: The GI50 was 1.3 µM.

Question: What about the TGI (SK-MEL-28 melanoma) of the same compound?
Answer: The TGI was 2.65 µM.

Question: And the GI50 (HS 578T breast)?
Answer: Its GI50 is 0.28 µM.

Question: And the TGI (HS 578T breast)?
Answer: The TGI was 4.3 µM.

Question: And the GI50 (SNB-19 CNS)?
Answer: Its GI50 is 1.88 µM.

Question: And the TGI (SNB-19 CNS)?
Answer: The TGI was 4.36 µM.

Question: And the GI50 (SN12C renal)?
Answer: Its GI50 is 1.26 µM.

Question: What about the TGI (SN12C renal) of the same compound?
Answer: The TGI was 13.9 µM.

Question: And the GI50 (BT-549 breast)?
Answer: Its GI50 is 0.716 µM.

Question: And the TGI (BT-549 breast)?
Answer: The TGI was 14.5 µM.

Question: And the GI50 (HOP-62 NSCLC)?
Answer: The GI50 was 1.98 µM.

Question: What about the TGI (HOP-62 NSCLC) of the same compound?
Answer: Its TGI is 4.65 µM.

Question: And the GI50 (HOP-92 NSCLC)?
Answer: The GI50 was 1.82 µM.

Question: What about the TGI (HOP-92 NSCLC) of the same compound?
Answer: The TGI was 4.55 µM.

Question: And the TGI (SR leukemia)?
Answer: Its TGI is 0.173 µM.

Question: And the GI50 (T-47D breast)?
Answer: Its GI50 is 3.24 µM.

Question: And the TGI (T-47D breast)?
Answer: Its TGI is > 88.8 µM.

Question: And the GI50 (UO-31 renal)?
Answer: The GI50 was 0.0741 µM.

Question: And the TGI (UO-31 renal)?
Answer: Its TGI is 2.15 µM.

Question: What about the GI50 (EKVX NSCLC) of the same compound?
Answer: The GI50 was 1.42 µM.

Question: And the TGI (EKVX NSCLC)?
Answer: The TGI was 4.86 µM.

Question: What about the GI50 (CAKI-1 renal) of the same compound?
Answer: Its GI50 is 0.365 µM.

Question: And the TGI (CAKI-1 renal)?
Answer: Its TGI is 5.76 µM.

Question: And the GI50 (PC-3 prostate)?
Answer: Its GI50 is 0.599 µM.

Question: And the TGI (PC-3 prostate)?
Answer: Its TGI is 3.82 µM.

Question: And the GI50 (CCRF-CEM leukemia)?
Answer: Its GI50 is 0.0102 µM.

Question: What about the TGI (CCRF-CEM leukemia) of the same compound?
Answer: The TGI was 0.634 µM.

Question: And the GI50 (MOLT-4 leukemia)?
Answer: The GI50 was 0.0102 µM.

Question: And the TGI (MOLT-4 leukemia)?
Answer: The TGI was 2.19 µM.

Question: What about the GI50 (DU-145 prostate) of the same compound?
Answer: The GI50 was 1.03 µM.

Question: What about the TGI (DU-145 prostate) of the same compound?
Answer: Its TGI is 2.88 µM.

Question: What about the GI50 (786-0 renal) of the same compound?
Answer: The GI50 was 0.0536 µM.

Question: And the TGI (786-0 renal)?
Answer: The TGI was 14.2 µM.

Question: And the GI50 (OVCAR-5 ovarian)?
Answer: Its GI50 is 2 µM.

Question: And the TGI (OVCAR-5 ovarian)?
Answer: The TGI was 5.82 µM.

Question: For `O=C1OC(C(O)CO)C(=O)C1=O` (stereo unspecified), which GI50 (MDA-MB-468 breast) is on record?
Answer: The GI50 was 1810 µM.

Question: And the TGI (MDA-MB-468 breast)?
Answer: Its TGI is 4350 µM.

Question: For `CN1CCN(CCCOc2ccc3nc(Nc4ccc(Cl)c(C(F)(F)F)c4)ccc3c2)CC1`, which GI50 (MDA-MB-468 breast) is on record?
Answer: The GI50 was 12.2 µM.

Question: What about the TGI (MDA-MB-468 breast) of the same compound?
Answer: The TGI was 26.9 µM.

Question: `COc1cc(/C=C/c2cc(/C=C/c3ccc(O)c(OC)c3)n(C(=O)Nc3ccc(F)c(Cl)c3)n2)ccc1O` was tested. Which GI50 (MDA-MB-468 breast) did it give?
Answer: Its GI50 is 0.266 µM.

Question: And the TGI (MDA-MB-468 breast)?
Answer: The TGI was 0.829 µM.
